Experimental data from patent publication US20200239530A1, “COMPOUNDS AND METHODS OF MODULATING PROTEIN DEGRADATION” (Vividion Therapeutics, Inc., priority 2017, published 2020).

Experiments:
Experiment in all cases: Cysteine liganding, probe competition
Assay type in all cases: binding
[1] = target: T1, GOLGA2 Golgin subfamily A member 2 (Homo sapiens, UniProt Q08379)
T1 construct: Cells were resuspended in cold PBS on ice and sonicated with a probe sonicator to achieve lysis; endogenous in cells
T1 sequence (Q08379 1-1002): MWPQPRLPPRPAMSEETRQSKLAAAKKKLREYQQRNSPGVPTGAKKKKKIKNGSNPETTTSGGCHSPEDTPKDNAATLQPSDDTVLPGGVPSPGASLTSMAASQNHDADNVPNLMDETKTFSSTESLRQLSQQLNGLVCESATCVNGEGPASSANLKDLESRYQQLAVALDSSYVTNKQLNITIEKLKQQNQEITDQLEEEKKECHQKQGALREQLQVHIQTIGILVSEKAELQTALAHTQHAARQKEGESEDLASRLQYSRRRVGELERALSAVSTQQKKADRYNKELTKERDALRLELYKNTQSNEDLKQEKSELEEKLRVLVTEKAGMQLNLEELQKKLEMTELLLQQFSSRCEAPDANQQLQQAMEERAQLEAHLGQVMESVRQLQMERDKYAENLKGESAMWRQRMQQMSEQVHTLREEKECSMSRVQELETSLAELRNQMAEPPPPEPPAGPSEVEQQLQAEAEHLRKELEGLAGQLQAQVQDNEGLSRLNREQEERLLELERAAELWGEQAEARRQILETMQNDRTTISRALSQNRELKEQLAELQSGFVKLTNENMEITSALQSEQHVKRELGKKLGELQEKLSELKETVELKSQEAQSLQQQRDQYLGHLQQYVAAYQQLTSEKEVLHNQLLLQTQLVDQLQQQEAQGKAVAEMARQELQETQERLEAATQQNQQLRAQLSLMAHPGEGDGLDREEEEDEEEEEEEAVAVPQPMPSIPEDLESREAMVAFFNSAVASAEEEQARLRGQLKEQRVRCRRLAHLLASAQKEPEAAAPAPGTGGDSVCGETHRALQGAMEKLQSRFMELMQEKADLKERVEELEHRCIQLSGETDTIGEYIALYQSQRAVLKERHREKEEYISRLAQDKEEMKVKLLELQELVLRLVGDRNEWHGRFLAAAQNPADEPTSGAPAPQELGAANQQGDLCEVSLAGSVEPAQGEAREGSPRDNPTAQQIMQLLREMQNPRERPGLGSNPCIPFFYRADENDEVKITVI
Procedure, shortened: (§1)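 Steps: sonicate cells in cold PBS; treat 5 mg/ml lysate with compound (25° C, 1 hr); add desthiobiotin iodoacetamide probe from a 10 mM stock (25° C, 1 hr); precipitate, reduce, alkylate, digest with trypsin; capture labelled peptides on streptavidin for analysis.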

[2] = target: T2, DECR2 Peroxisomal 2,4-dienoyl-CoA reductase (Homo sapiens, UniProt Q9NUI1); conditions: for Liganded: DECR2 Res# 120, uniprot Q9NUI1
T2 construct: 200 μL of lysate containing 5 mg/ml proteome was treated with 2 μL of 100× compound stock; endogenous in cells
T2 sequence (Q9NUI1 1-292): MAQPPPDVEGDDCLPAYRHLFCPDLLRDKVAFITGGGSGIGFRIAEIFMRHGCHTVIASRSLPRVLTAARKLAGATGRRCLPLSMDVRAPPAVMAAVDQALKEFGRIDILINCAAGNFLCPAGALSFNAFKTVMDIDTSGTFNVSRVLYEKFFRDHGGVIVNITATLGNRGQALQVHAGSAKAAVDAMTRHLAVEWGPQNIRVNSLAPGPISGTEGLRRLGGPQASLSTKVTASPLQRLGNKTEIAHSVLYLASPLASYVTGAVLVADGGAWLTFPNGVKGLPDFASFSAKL
Procedure, shortened: as §1

[3] = target: T3, E3 ubiquitin-protein ligase pellino homolog 1 (PELI1) (Homo sapiens, UniProt Q96FA3)
T3 construct: Cells were resuspended in cold PBS on ice and sonicated with a probe sonicator to achieve lysis; endogenous in cells
Procedure, shortened: as §1

T3 sequence (Q96FA3 whole entry): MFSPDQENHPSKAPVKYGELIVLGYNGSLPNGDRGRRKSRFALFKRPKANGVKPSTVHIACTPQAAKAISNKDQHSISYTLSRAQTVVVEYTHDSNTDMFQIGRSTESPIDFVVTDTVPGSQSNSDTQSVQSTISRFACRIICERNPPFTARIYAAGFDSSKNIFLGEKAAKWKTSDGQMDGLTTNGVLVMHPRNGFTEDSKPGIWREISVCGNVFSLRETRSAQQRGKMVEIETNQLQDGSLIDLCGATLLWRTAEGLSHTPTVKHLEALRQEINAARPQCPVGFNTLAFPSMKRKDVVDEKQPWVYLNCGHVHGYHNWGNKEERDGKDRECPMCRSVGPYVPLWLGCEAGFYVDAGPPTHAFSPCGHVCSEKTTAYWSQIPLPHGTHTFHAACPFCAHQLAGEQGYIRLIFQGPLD

For `COc1ccc2c(c1)CCCN2C(=O)CCl` [KB02], the Liganded ([1]; GOLGA2 Res# 794, uniprot Q08379) was “YES” and the Liganded [2] was “YES”.
Work on `C=CC(=O)N(c1ccccc1)c1ccc(Br)cc1` [KB05] yielded an inhibition at 100 µM ([3]; read-out: KB05_100 uM_percent_inhibition) of 2%.
`O=C(CCl)Nc1cc(C(F)(F)F)cc(C(F)(F)F)c1` [KBO3] was tested, and the “100 Max” value ([1]; uniprot Q08379) was 1.85, the 100 ave ([1]; uniprot Q08379) was 1.85 and the “500 Max” value ([1]; uniprot Q08379) was 54.38. For the same compound, the 500 ave ([1]; uniprot Q08379) was 54.38, the “KB03_100 uM_percent_inhibition” value ([3]; 100 uM) was 57% and the Liganded [2] was “YES”. For the same compound, the “100 Max” value ([2]; uniprot Q9NUI1) was 66.9, the 100 ave ([2]; uniprot Q9NUI1) was 66.9 and the “500 Max” value ([2]; uniprot Q9NUI1) was 85. For the same compound, the 500 ave ([2]; uniprot Q9NUI1) was 85.
